Results taken from patent US7199153B2, “Pharmaceutical composition comprising paracetamol and niflumic acid” (SmithKline Beechman, p.l.c., priority 2000, dated 2007).

Tested on: P-phenyl-quinone induced abdominal constriction in DBA/2 mice
Assay: P-phenyl-quinone induced mouse abdominal constriction (MAC) assay
Type: in vivo
Conditions: paracetamol alone at 50 mg/kg and 150 mg/kg, po
Description: The method is based on that described by Siegmund, Cadmus and Lu in “A Method for Evaluating both Non-Narcotic and Narcotic Analgesics” Proc. Soc. Exp. Biol. Med., 95: 729–731 (1957)).
DBA/2 mice were housed 20 per cage in a temperature and humidity controlled environment on a 12:12 hour light-dark cycle for five days with food and water ad libitum before testing. […] Ten animals were randomly allocated to each drug group and experimental designs were used that allowed complete randomisation of the testing of drug groups. Drugs were suspended in 1% methylcellulose and administered 10 ml/kg po, 60 mins pre-test. Abdominal constriction was induced by i.p. injection of 10 ml/kg P-phenyl-quinone (0.025% in 5% ethanol/water) and the total number of constrictions in a twenty minute period were measured. A constriction is defined as a flattening of the abdomen with extension of the hind limbs. Testing was blind with one experimenter observing five animals. All experiments were performed in accordance with the Animals (Scientific Procedures) Act 1986 and subject to local ethical committee approval.
For each drug group, the mean % inhibition of constrictions was calculated ((1-(test/control))*100) and appropriate statistics were performed on log-transformed data to test significant differences from vehicle and, in the case of groups receiving drug combinations, each drug alone.

CC(=O)Nc1ccc(O)cc1 [Paracetamol, N-acetyl-p-aminophenol]
% inhibition of constrictions, drug alone: small but significant effect
